Measurements taken from patent US9078446B2, “Use of N-(tetrazol-4-yl)- or N-(triazol-3-yl)arylcarboxamides or their salts for controlling unwanted plants in areas of transgenic crop plants being tolerant to HPPD inhibitor herbicides” (BAYER INTELLECTUAL PROPERTY GMBH, priority 2011, dated 2015).

Key:
Type in all cases: in vivo
[1] = system: transgenic tobacco plants expressing HPPD from Blepharisma japonicum (FMP37); experiment: Symptoms due to herbicide application on transgenic tobacco plants (damage classes 0-3); settings: 25 g Al/ha, one week after application
Source text: (§1) Genes coding for the selected HPPD were obtained from a member of the group of organisms consisting of Avena sativa, Pseudomonas fluorescens mutant G336W, Blepharisma japonicum and Kordia algicida and cloned into the binary vector pBin19 allowing the integration of DNA into the tobacco genome, under the control of the CaMV35S promoter. For the cloning procedures, see A2 above for Avena sativa, see B2 above for Pseudomonas fluorescens, mutant G336W, see PCT/EP2010/070567 (published as WO 2011/076882, Example 5; for Blepharisma japonicum (FMP37) and see PCT/EP2010/070575, Example 5 for Kordia algicida (FMP27). Between the sequence corresponding to the promoter and the sequence coding for the HPPD a DNA sequence coding for a transit peptide to the chloroplast was inserted, in order to add at the N-terminal extremity of the protein a target signal to allow the localization of the HPPD protein into the plant chloroplast.
(§2) Seeds harvested from TO transformants will be put on standard soil for germination. Three weeks later plantlets (T1) will be transferred to single pots and grown under standard cultivation conditions (PCT/EP2010/070575, published as WO 2011/076889). Two weeks later, plants were sprayed with several N-(tetrazol-4-yl)- or N-(triazol-3-yl)arylcarboxamides as defined above.
(§3) Tables F1 to F5: Evaluation of the Symptoms Observed Due to the Application of the Herbicides on Transgenic Tobacco Plants, Expressing the Mutant Pseudomonas fluorescens HPPD G336W, the Avena HPPD (AvHPPD), the HPPD from Kordia algicida FMP27 or the HPPD from Blepharisma japonicum (FMP37), Compared to Non-Tranformed Tobacco Plants (“Wt”).
(§4) The herbicides (with “g Al/ha” meaning “g active ingredient/ha”) were applied on 8 to 10 plants originated from 1 to 3 independent transgenic events per transgene.
(§5) The symptoms were evaluated and classified as following: • 3=Very strong damage • 2=Strong damage • 1=Light and transient damage • 0=No damage

[2] = system: transgenic tobacco plants expressing mutant Pseudomonas fluorescens HPPD G336W (PfHPPD-G336W); experiment: as above; settings: PfHPPD-G336W line 646; 25 g Al/ha; one week after application
Source text: as §1, §2, §3, §4, §5

[3] = system: transgenic tobacco plants expressing HPPD from Kordia algicida FMP27; experiment: as above; settings: 25 g Al/ha, one week after application
Source text: as §1, §2, §3, §4, §5

[4] = system: transgenic tobacco plants expressing Avena HPPD (AvHPPD); experiment: as above; settings: 25 g Al/ha, one week after application
Source text: as §1, §2, §3, §4, §5

[5] = system: cotton plants expressing FMP 27 and FMP 37; experiment: Tolerance to HPPD inhibitors of cotton plants expressing tolerant HPPD enzymes; settings: T1 cotton plants; one week after application
Source text: (§6) Genes coding for the selected HPPD were obtained from a member of the group of organisms consisting of Blepharisma japonicum and Kordia algicida and cloned into an appropriate binary vector allowing the integration of DNA into the cotton genome, under the control of the CaMV35S promoter. For the respective cloning procedures, see WO2011076882 (PCT/EP2010/070567), Example 11; for Blepharisma japonicum (FMP37) and WO2011076889 (PCT/EP2010/070575), Example 11 for Kordia algicida (FMP27).
Between the sequence corresponding to the promoter and the sequence coding for the HPPD a DNA sequence coding for a transit peptide to the chloroplast was inserted, in order to add at the N-terminal extremity of the protein a target signal to allow the localization of the HPPD protein into the plant chloroplast. Cotton transformation was achieved as described in Example 12 of WO2011076882 (PCT/EP2010/070567) for Blepharisma japonicum (FMP37) and WO2011076889 (PCT/EP2010/070575) for Kordia algicida (FMP27). Seeds from T0 events showing tolerance to tembotrione were harvested.
T1 Cotton seeds were transferred to single pots and grown under standard cultivation conditions, see WO2011076882 (PCT/EP2010/070567) for Blepharisma japonicum (FMP37) and WO2011076889 (PCT/EP2010/070575) for Kordia algicida (FMP27).
At least 4 weeks later, plants will be sprayed with several N-(tetrazol-4-yl)- or N-(triazol-3-yl)arylcarboxamides as defined above.

[6] = system: soybean plants expressing Pseudomonas fluorescens G336W mutant, FMP 27 and FMP 37; experiment: Tolerance to HPPD inhibitors of soybean plants expressing tolerant HPPD enzymes; settings: T1 soybean plants; one week after application
Source text: as §6, with “the soybean” for “the cotton”, “Example 9;” for “Example 11;”, “Example 9” for “Example 11”
Between the sequence corresponding to the promoter and the sequence coding for the HPPD a DNA sequence coding for a transit peptide to the chloroplast was inserted, in order to add at the N-terminal extremity of the protein a target signal to allow the localization of the HPPD protein into the plant chloroplast. By using the vectors “pFCO112” (Blepharisma japonicum, WO2011076882), pFCO116 (Korida algicida, WO2011076889), and pFCO117” (see Example B2, above), soybean transformation was achieved as described in Example 10 of WO2011076882 (PCT/EP2010/070567) for Blepharisma japonicum (FMP37) and WO2011076889 (PCT/EP2010/070575) for Kordia algicida (FMP27). Seeds from TO events showing tolerance to tembotrione were harvested.
T1 Soybean seeds were transferred to single pots and grown under standard cultivation conditions, see WO2011076882.
Two weeks later, plants will be sprayed with several N-(tetrazol-4-yl)- or N-(triazol-3-yl)arylcarboxamides as defined above.

[7] = system: non-transformed tobacco plants (Wt); experiment: Symptoms due to herbicide application on tobacco plants (damage classes 0-3); settings: 25 g Al/ha, one week after application
Source text: as §2, §3, §4, §5

[8] = system: transgenic tobacco plants expressing tolerant HPPD enzymes; experiment: Tolerance of tobacco plants expressing tolerant HPPD enzymes (all transgenes)
Source text: as §1, §2, §3, §4, §5

In the case of `CCn1nnnc1NC(=O)c1ccc(C(F)(F)F)c(S(C)(=O)=O)c1C` [Compound 5-148], the “number of plants with Damage 0 (No damage)” value (from here on “number … (No damage)”) ([1]; FMP37 line 749) is reported as 2, the “number of plants with Damage 1 (Light and transient damage)” value (“number … (Light and transient damage)” for short) ([1]; FMP37 line 749) is reported as 3 and the “number of plants with Damage 2 (Strong damage)” value (from here on “number … (Strong damage)”) ([1]; FMP37 line 749) is reported as 2. The “number of plants with Damage 3 (Very strong damage)” value (“number … (Very strong damage)” for short) ([1]; FMP37 line 749) was 3, the “number … (No damage)” value ([1]; FMP37 line 754) was 2 and the “number … (Light and transient damage)” value ([1]; FMP37 line 754) was 1. The “number … (Strong damage)” value ([1]; FMP37 line 754) was 5, the “number … (Very strong damage)” value ([1]; FMP37 line 754) was 2 and the “number … (No damage)” value ([1]; FMP37 line 795) was 1. The “number … (Light and transient damage)” value ([1]; FMP37 line 795) was 0, the “number … (Strong damage)” value ([1]; FMP37 line 795) was 6 and the “number … (Very strong damage)” value ([1]; FMP37 line 795) was 3. For the same molecule, the “number … (No damage)” value [2] was 0, the “number … (Light and transient damage)” value [2] was 3 and the “number … (Strong damage)” value [2] was 2. The “number … (Very strong damage)” value [2] was 4, the “number … (No damage)” value ([3]; FMP27 line 733) was 3 and the “number … (Light and transient damage)” value ([3]; FMP27 line 733) was 1. The “number … (Strong damage)” value ([3]; FMP27 line 733) was 4, the “number … (Very strong damage)” value ([3]; FMP27 line 733) was 2 and the “number … (No damage)” value ([3]; FMP27 line 734) was 4. For the same molecule, the “number … (Light and transient damage)” value ([3]; FMP27 line 734) was 2, the “number … (Strong damage)” value ([3]; FMP27 line 734) was 0 and the “number … (Very strong damage)” value ([3]; FMP27 line 734) was 4. For the same molecule, the “number … (No damage)” value ([3]; FMP27 line 735) was 0, the “number … (Light and transient damage)” value ([3]; FMP27 line 735) was 4 and the “number … (Strong damage)” value ([3]; FMP27 line 735) was 4. The “number … (Very strong damage)” value ([3]; FMP27 line 735) was 2, the “number … (No damage)” value ([4]; AvHPPD line 656) was 2 and the “number … (Light and transient damage)” value ([4]; AvHPPD line 656) was 1. For the same molecule, the “number … (Strong damage)” value ([4]; AvHPPD line 656) was 3, the “number … (Very strong damage)” value ([4]; AvHPPD line 656) was 4 and the “number … (No damage)” value ([4]; AvHPPD line 659) was 3. For the same molecule, the “number … (Light and transient damage)” value ([4]; AvHPPD line 659) was 1, the “number … (Strong damage)” value ([4]; AvHPPD line 659) was 0 and the “number … (Very strong damage)” value ([4]; AvHPPD line 659) was 6. For the same molecule, the “number … (No damage)” value ([4]; AvHPPD line 699) was 1, the “number … (Light and transient damage)” value ([4]; AvHPPD line 699) was 1 and the “number … (Strong damage)” value ([4]; AvHPPD line 699) was 1. The “number … (Very strong damage)” value ([4]; AvHPPD line 699) was 7, the “tolerance of transgenic plants compared to the wild-type cotton plants” value [5] was “superior tolerance” and the “tolerance of transgenic plants compared to the wild-type soybean plants” value [6] was “superior tolerance”. For the same molecule, the “number … (No damage)” value [7] was 0, the “number … (Light and transient damage)” value [7] was 0 and the “number … (Strong damage)” value [7] was 0. For the same molecule, the “number … (Very strong damage)” value [7] was 10, the “tolerance of the transgenic tobacco plants (symptoms due to application of the herbicide)” value ([8]; T1 plants sprayed, evaluated one week after application) was “good tolerance” and the “sensitivity of transgenic tobacco plants compared to wild type (wt) plants” value ([8]; all tested independent lines, agronomically relevant dose) was “less sensitive”.
